# Reference: US9629828B2, “Methods of treating traveler's diarrhea and hepatic encephalopathy” (priority 2008, dated 2017)
# Entries after “also recorded” stand apart in the source; their conditions may differ. Like-named read-outs stand apart in the source and are kept apart here. Marks after values point to notes of the source that are not given here.
# Key:
# [1] = test system: adult subjects with travelers' diarrhea; assay: Travelers' diarrhea Study 1: clinical response (TLUS, clinical cure); format: in vivo, human
# Experimental: One study was conducted at clinical sites in Mexico, Guatemala, and Kenya (Study 1). The other study was conducted in Mexico, Guatemala, Peru, and India (Study 2). Stool specimens were collected before treatment and 1 to 3 days following the end of treatment to identify enteric pathogens. The predominant pathogen in both studies was Escherichia coli.
# The clinical efficacy of rifaximin was assessed by the time to return to normal, formed stools and resolution of symptoms. The primary efficacy endpoint was time to last unformed stool (TLUS) which was defined as the time to the last unformed stool passed, after which clinical cure was declared. […] More patients treated with rifaximin were classified as clinical cures than were those in the placebo group.
# [2] = both, human, in vivo
# Experimental: Two studies evaluated the pharmacokinetics of rifaximin in patients with hepatic impairment. […] Because of the limited systemic absorption of rifaximin, no specific dosing adjustments are recommended for patients with hepatic insufficiency.
# A pharmacokinetic investigation was performed in subjects with HE in a dose-finding study.
# cytochrome P450 2C19 = target: T1, cytochrome P450 2C19 (Homo sapiens, UniProt P33261); assay: In vitro cytochrome P450 inhibition; format: in vitro ADME; details: 2 to 200 ng/mL
# T1 construct: from tissue; host or cells: human liver fractions
# T1 sequence (P33261 whole entry): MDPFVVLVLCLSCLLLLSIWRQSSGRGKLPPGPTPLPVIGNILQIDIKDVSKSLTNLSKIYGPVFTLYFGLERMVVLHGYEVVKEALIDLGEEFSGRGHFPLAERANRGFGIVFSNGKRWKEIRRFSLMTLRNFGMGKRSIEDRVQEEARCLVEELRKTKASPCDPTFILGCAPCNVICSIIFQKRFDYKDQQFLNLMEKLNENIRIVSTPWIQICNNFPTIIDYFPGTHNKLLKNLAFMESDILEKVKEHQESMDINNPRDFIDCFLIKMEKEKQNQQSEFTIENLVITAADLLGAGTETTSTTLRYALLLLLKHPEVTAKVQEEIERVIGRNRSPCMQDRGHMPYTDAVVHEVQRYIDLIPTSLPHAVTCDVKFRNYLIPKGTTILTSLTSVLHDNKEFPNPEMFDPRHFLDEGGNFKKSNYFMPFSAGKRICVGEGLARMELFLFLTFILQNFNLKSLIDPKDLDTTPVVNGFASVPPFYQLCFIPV
# P-gp transporter = P-gp transporter (Homo sapiens, UniProt P08183); assay: In vitro P-gp transporter inhibition; format: in vitro ADME; details: 50 μM
# Chain of P-gp transporter (P08183 whole entry): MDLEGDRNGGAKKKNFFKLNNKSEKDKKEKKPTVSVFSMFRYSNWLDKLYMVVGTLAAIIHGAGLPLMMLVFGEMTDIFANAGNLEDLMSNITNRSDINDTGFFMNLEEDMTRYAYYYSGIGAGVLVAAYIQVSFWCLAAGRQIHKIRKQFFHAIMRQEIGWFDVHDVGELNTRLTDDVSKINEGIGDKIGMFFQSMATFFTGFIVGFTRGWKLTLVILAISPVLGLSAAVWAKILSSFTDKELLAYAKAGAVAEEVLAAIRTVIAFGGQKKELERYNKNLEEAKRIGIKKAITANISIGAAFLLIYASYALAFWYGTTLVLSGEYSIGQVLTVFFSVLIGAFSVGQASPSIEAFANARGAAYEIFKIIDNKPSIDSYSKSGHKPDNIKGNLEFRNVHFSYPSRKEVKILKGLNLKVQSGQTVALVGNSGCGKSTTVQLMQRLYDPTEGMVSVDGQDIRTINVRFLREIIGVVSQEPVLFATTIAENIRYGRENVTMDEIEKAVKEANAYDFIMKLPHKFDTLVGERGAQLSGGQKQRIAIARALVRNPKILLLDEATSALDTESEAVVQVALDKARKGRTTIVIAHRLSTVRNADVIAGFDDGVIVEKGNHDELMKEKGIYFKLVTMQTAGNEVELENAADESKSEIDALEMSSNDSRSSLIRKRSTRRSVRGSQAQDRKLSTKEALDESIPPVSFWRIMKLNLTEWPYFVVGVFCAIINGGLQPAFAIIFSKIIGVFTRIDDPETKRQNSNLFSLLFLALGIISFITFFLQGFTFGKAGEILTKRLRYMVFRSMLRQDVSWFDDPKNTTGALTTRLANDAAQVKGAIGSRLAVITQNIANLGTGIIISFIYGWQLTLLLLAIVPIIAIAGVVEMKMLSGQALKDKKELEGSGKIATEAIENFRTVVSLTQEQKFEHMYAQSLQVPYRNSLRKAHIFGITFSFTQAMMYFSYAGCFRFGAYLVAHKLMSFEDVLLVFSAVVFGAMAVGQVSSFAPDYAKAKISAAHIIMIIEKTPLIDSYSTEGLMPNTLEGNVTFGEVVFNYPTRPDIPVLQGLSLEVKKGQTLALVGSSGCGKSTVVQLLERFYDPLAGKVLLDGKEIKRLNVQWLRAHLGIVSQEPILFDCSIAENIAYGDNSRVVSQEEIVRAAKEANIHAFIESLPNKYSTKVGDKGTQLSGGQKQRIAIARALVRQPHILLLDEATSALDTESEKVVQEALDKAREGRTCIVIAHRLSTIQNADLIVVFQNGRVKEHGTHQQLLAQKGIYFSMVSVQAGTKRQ
# rabbits [3] = details: rabbit, in vivo
# Source text: (§1) These effects include cleft palate, agnatha, jaw shortening, hemorrhage, eye partially open, small eyes, brachygnathia, incomplete ossification, and increased thoracolumbar vertebrae.
# rats [4] = details: rat, in vivo
# Source text: as §1
# Tg.rasH2 mice = details: Tg.rasH2, mouse, in vivo, 26 weeks
# in vivo = details: rat
# Experimental: (§2) However, plasma drug levels were not measured in these studies. […] The maximum plasma AUC0-8 hr values from the 6 month rat and 9 month dog toxicity studies (range: 42-127 ng·h/mL) was lower than the maximum plasma AUC0-8 hr values in cirrhotic patients (range: 19-306 ng·h/mL).
# rats [5] = assay: in vivo; details: rat
# Experimental: as §2
# [6] = test system: liver transplant patients who presented with HE; assay: Chart review of 39 liver transplant patients with HE; format: in vivo, human
# [7] = test system: Gram-positive and Gram-negative bacteria, such as Escherichia coli; assay: In vitro antibacterial activity / susceptibility (NCCLS agar dilution M7-A6); format: cell-based
# Experimental: In vitro susceptibility testing was performed according to the National Committee for Clinical Laboratory Standards (NCCLS) agar dilution method M7-A612.
# Methods for dilution antimicrobial susceptibility tests for bacteria that grow aerobically. National Committee for Clinical Laboratory Standards, Sixth Edition, Wayne Pa. Approved Standard NCCLS Document M7-A6 Jan.
# [8] = Post approval adverse reactions; format: in vivo, human; details: post approval use
# Source text: Because these reactions are reported voluntarily from a population of unknown size, estimates of frequency cannot be made.
# [9] = human
# Experimental: The covariates chosen for the analysis are known indicators of hepatic and renal function. A visual diagnostic was performed to detect potential trends between covariates of interest and AUCτ, Cmax, and CL/F.
# rabbits [10] = details: rabbit, in vivo; remark: listed apart in the source
# [11] = test system: subjects with a history of recurrent, overt, episodic HE; assay: Second study: changes in Conn scores and asterixis grades; format: in vivo, human; details: 266 subjects
# patients with HE = details: rifaximin 1200 mg/day, neomycin 3 g/day; cited from earlier work
# in vitro = details: human, plasma
smiles,measurement,setting,value
"CO[C@H]1/C=C/O[C@@]2(C)Oc3c(C)c(O)c4c(O)c(c5c(nc6cc(C)ccn65)c4c3C2=O)NC(=O)/C(C)=C\C=C\[C@H](C)[C@H](O)[C@@H](C)[C@@H](O)[C@@H](C)[C@H](OC(C)=O)[C@@H]1C [rifaximin, (2S,16Z,18E,20S,21S,22R,23R,24R,25 S,26S,27S,28E)-5,6,21,23,25-pentahydroxy-27-methoxy-2,4,11,16,20,22,24,26-octamethyl-2,7-(epoxypentadeca-[1,11,13]trienimino)benzofuro[4,5-e]pyrido[1,2-á]-benzimidazole-1,15(2H)-dione,25-acetate]",Median TLUS,"[1]; 200 mg TID 3 days, ITT n = 125",32.5 h
same,Difference in rates of clinical cure vs placebo,[1]; ITT,18.7^b
same,Clinical cure,[1]; ITT n = 125,99 (79.2) n (%)
same,mean amount recovered in 24-h urine after last dose,[2],0.06-0.1 % of dose
same,administered dose recovered in urine,[2]; 7 days,less than 0.1%
same,inhibition of 2C19,cytochrome P450 2C19,did not inhibit
same,inhibition of transport of a model P-gp substrate,P-gp transporter,only partially inhibited
same,fertility / harm to the fetus,rabbits [3],no evidence of impaired fertility or harm to the fetus
same,fertility / harm to the fetus,rats [4],no evidence of impaired fertility or harm to the fetus
same,female mice with ruffled fur and hunched appearance,Tg.rasH2 mice,2/25
same,AUC(0-t),in vivo,42 to 127 ng·h/mL
same,toxic effects,rats [5],negligible toxic effects
same,hospitalizations reported,"[6]; 15 rifaximin, 24 lactulose patients",3
same,average length of stay,"[6]; human, in vivo",3.5 days
same,in vitro antibacterial activity,[7],active
same,in vitro antibacterial activity,[7]; listed as Rifaximin,in vitro antimicrobial activity; also recorded: broad spectrum of in vitro antibacterial activity
same,C. difficile-associated colitis,[8],have been reported
same,Regression estimate for AUCτ: Albumin,[9],−0.0573
same,Regression estimate for AUCτ: INR,[9],−1.7432
same,Regression estimate for AUCτ: Intercept,[9],8.4175
same,Regression estimate for AUCτ: Total Bilirubin,[9],0.0173
same,Regression estimate for CL/F: ALT,[9],−0.0028
same,Regression estimate for CL/F: Albumin,[9],0.0783
same,Regression estimate for CL/F: INR,[9],2.5949
same,Regression estimate for CL/F: Intercept,[9],−0.8934
same,Regression estimate for CL/F: Total Bilirubin,[9],−0.0185
same,Regression estimate for Cmax: ALT,[9],0.0031
same,Regression estimate for Cmax: Albumin,[9],−0.0515
same,Regression estimate for Cmax: INR,[9],−2.0654
same,Regression estimate for Cmax: Intercept,[9],6.5350
same,Regression estimate for Cmax: Total Bilirubin,[9],0.0207
same,toxic effects,rabbits [10],negligible toxic effects
same,"subjects with worsening asterixis by 1, 2, or 4 grades",[11],6.8%
same,efficacy in patients with HE,patients with HE,comparable efficacy
same,fraction unbound,in vitro,0.447
